In PubChem BioAssay AID503:

Target: Regulator of G-protein signaling 18 (Homo sapiens) (UniProt Q9NS28)
Test: ligand-induced RGS18 melting temperature shift – biophysical, recombinant human protein, DSF (AID 503)
Conditions: Recombinant RGS18 DSF thermal shift, SYPRO orange; at 10 µM; protein 2 µM; buffer 10 mM HEPES; pH 7.5; NaCl 150 mM; stronger effect = higher value

Regulator of G-protein signaling 18 (Homo sapiens), sequence (Q9NS28 whole entry, looked up): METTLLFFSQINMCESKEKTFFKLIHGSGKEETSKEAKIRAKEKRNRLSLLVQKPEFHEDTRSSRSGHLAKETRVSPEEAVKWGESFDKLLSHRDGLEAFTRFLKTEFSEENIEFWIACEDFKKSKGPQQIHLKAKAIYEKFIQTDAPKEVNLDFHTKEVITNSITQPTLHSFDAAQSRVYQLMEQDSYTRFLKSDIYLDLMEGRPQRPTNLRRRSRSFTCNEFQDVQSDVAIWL

Tm shift [°C]	Compound
2.6	O=C1NCc2c1c1c3ccccc3[nH]c1c1[nH]c3ccccc3c21
4	O=C(Nc1cccc(Nc2cc(Nc3cccc(C(F)(F)F)c3)ncn2)c1)C1CC1
